US10316319B2, “Composition for diagnosis of liver metastasis of colorectal cancer and the use thereof” (SAMSUNG LIFE PUBLIC WELFARE FOUNDATION, priority 2010, dated 2019)

Legend:
Format in all cases: cell-based
[1] = test system: HCT116 colorectal cancer cells; assay: Western blot of EMT markers and CCR3 in HCT116 cells; settings: HCT116 cells stably transfected with GFP or CCL7, with or without SB328437; Western blot (FIG. 5D)
Protocol: For the Western blot, lysates from transfected HCT116 cells were obtained using Pro-prep buffer (Intron Biotechnology, Seoul, Korea), including protease inhibitors. 20-60 μg the protein extract was resolved by SDS-PAGE and transferred to polyvinylidene fluoride (PVDF) membranes and probed with antibodies against CCR1, CCR2, CCR3, CCR5, CCL7, and β-actin, as a loading control. Secondary antibodies conjugated to horseradish peroxidase were used to image the membrane.
HCT116 colorectal cancer cells were transfected with siRNA to lower expression of the CCL7 gene, and protein expression of CCL7, E-cadherin, Snail, vimentin, twist, and β-actin, as a loading control, was determined by Western blot analysis.
HCT116 colorectal cancer cells were also treated with anti-CCL7 antibodies and the CCR3 expression in cell extracts was determined via Western blot analysis.
HCT116 colorectal cancer cells were stably transfected with GFP (control) or CCL7 and the expression of E-cadherin, α-SMA, vimentin, twist, and β-actin, as a loading control, was determined via Western blot analysis.

[2] = test system: HCT116 colorectal cancer cells; assay: Transwell migration and matrigel invasion assay of HCT116 cells; settings: GFP and CCL7 transfected HCT116 treated with SB328437 (FIG. 6C)
Protocol: To explore the role of CCL7 on migration and invasion of cancer cells, HCT116 colorectal cancer cells were transiently transfected with siRNA to the CCL7 gene or stably transfected with GFP (control) or CCL7. The cells (5×10^4) were loaded into the migration and invasion chambers in a 24-well plate in serum-free RPMI media. The lower chambers were supplemented with 10% FBS and the cells were incubated for 24 or 48 hours. The cells were stained with calcein or hematoxylin-eosin and mounted. Cell migration and invasion was quantified via fluorescence.

[3] = test system: HCT116 colorectal cancer cells; assay: Western blot of ERK/JNK activation (pERK, pJNK) in HCT116 cells; settings: stably transfected HCT116, 20 μM SB328437 (FIG. 7B)
Protocol: To explore the role of CCL7 signaling and CCR3 in the EMT-related pathway, activation of ERK and JNK was measured. HCT116 colorectal cancer cells were transiently transfected with siRNA against CCL7 or stably transfected with GFP (control) or CCL7. The stably transfected cells were incubated in the presence or absence of 20 μM SB328437. Cell lysates were obtained as above and assayed via Western blot analysis for pERK, total ERK, pJNK, total JNK, and β-actin.

## COC(=O)[C@H](Cc1ccc([N+](=O)[O-])cc1)NC(=O)c1cccc2ccccc12 [SB328437]
[1]
  effect of CCL7 overexpression (reduced E-cadherin, increased α-SMA, vimentin, twist): blocked
[2]
  CCL7-induced migration and invasion of the colorectal cancer cells: blocked
[3]
  phosphorylation of ERK and JNK increased by CCL7 overexpression: inhibited
